Values belong to the compound of their own block, whether it stands above or below them.
Tests used:
[1] = biological target: T1, Protein farnesyltransferase (Rattus norvegicus, UniProt Q02293+Q04631); assay: Activity against rat brain Farnesyltransferase
[2] = biological target: T2, Protein farnesyltransferase (Mus musculus) (UniProt Q61239+Q8K2I1); assay: Concentration disrupting H-Ras processing in human H-Ras BALB/c 3T3 cells; type: functional, cell-based
[3] = biological target: T3, Protein farnesyltransferase (Homo sapiens, UniProt P49354+P49356); assay: Activity against Farnesyltransferase; type: protein-complex assay
Tumor Cell line = assay: Inhibition of colony formation in soft agar of 14 human tumor cell lines; type: functional, cell-based
[4] = biological target: Protein farnesyltransferase (Bos taurus, UniProt P29702+P49355); assay: Activity against bovine Farnesyltransferase; type: protein-complex assay
[5] = biological target: T3, Protein farnesyltransferase; assay: Inhibition of Ras processing in v-Ras-transformed cells; type: functional, cell-based
[6] = biological target: T2, Protein farnesyltransferase (Mus musculus); assay: Inhibition of Ras-processing in H-Ras transformed NIH3T3 fibroblasts; type: functional, cell-based
[7] = biological target: T1, Protein farnesyltransferase; assay: Activity against rat Farnesyltransferase; type: protein-complex assay
[8] = biological target: Geranylgeranyl transferase type I (Homo sapiens, UniProt P49354+P53609); assay: Activity against Geranylgeranyl transferase type I; type: protein-complex assay
Mus musculus [9] = assay: Activity against H-Ras-transformed rat-1 tumor cells implanted intraperitoneally in athymic mice; type: functional
NIH3T3 = assay: Activity against H-Ras transformed NIH3T3 fibroblasts in a clonogenic assay; type: functional, cell-based; conditions: Mus musculus
Mus musculus [10] = species on record: Mus musculus; assay: Percent increase in life span of NIH3T3 cell tumor-bearing nude mice; type: functional
[11] = biological target: Protein farnesyltransferase (Sus scrofa); assay: Activity against pig Farnesyltransferase
[12] = biological target: T3, Protein farnesyltransferase; assay: Activity against Ras Farnesyltransferase from Burkett's lymphoma.; type: protein-complex assay
[13] = biological target: T3, Protein farnesyltransferase; assay: Activity against Ras Farnesyltransferase from human colon carcinoma; type: protein-complex assay
[14] = biological target: T3, Protein farnesyltransferase; assay: Inhibitory activity against farnesyl pyrophosphate; type: protein-complex assay
[15] = biological target: T3, Protein farnesyltransferase; assay: Activity against human Farnesyltransferase; type: protein-complex assay

SMILES: N[C@@H](CS)CNc1ccc(-c2cccc(C(=O)O)c2)cc1
IC50 [1]: 50 nM
Concentration [2]: 50 µM

SMILES: COC(=O)C1=CC(CO)=COc2oc3cccc(O)c3c(=O)c21 [FUSIDIENOL]
IC50 [4]: 1000 nM

SMILES: CC(C)=CCC/C(C)=C/CC/C(C)=C/CONC(=O)CP(=O)(O)OCOC(=O)C(C)(C)C
IC50 [3]: 2610 nM

SMILES: COC(=O)C(CCSC)NC(=O)CN1C(=O)[C@H](N(C)C(=O)[C@H](N)CS)NC(c2ccccc2)c2ccccc21 (stereo not given in full)
IC50 [7]: 0.85 nM

SMILES: O=C(CN(Cc1ccc(OCc2ccccc2)cc1)C(=O)[C@H](Cc1c[nH]cn1)NC(=O)OCc1ccccc1)NCCc1ccccc1
Concentration [6]: 0.1 µM
IC50 (NIH3T3): 4400 nM
IC50 [3]: 170 nM
ILS (Mus musculus [10]): 35%

SMILES: O=C1C=C[C@]23Oc4ccc(O)c5c4[C@](Oc4cccc1c42)(O3)C1OC1C5=O (stereo not given in full) [PREUSSOMERIN]
IC50 [4]: 1200 nM

SMILES: COC1=C(N)C(=O)c2nc(-c3nc(C(=O)O)c(C)c(-c4cccc(OC)c4O)c3N)ccc2C1=O
IC50 [3]: 21000 nM

SMILES: O=C(CN(Cc1ccc(OCc2ccccc2)cc1)C(=O)[C@H](Cc1c[nH]cn1)NC(=O)OCc1ccccc1)NCCOCc1ccccc1
Concentration [6]: 1 µM
IC50 [3]: 260 nM

SMILES: O=C(N[C@H](Cc1cnc[nH]1)C(=O)N[C@@H](Cc1ccc(OCc2ccccc2)cc1)C(=O)NCCOCc1ccccc1)OCc1ccccc1
IC50 [3]: 20 nM

Further lines, with some results ahead:

IC50 [3]: 400 nM
SMILES: CN(C(=O)[C@@H](Cc1cnc[nH]1)NC(=O)OCc1ccccc1)[C@@H](Cc1ccc(OCc2ccccc2)cc1)C(=O)NCCOCc1ccccc1

IC50 (Tumor Cell line): 60000 nM
SMILES: COC(=O)[C@H](CCSC)NC(=O)[C@H](/C=C\[C@@H](/C=C/[C@@H](N)CS)C(C)C)Cc1ccccc1

IC50 [5]: 50000 nM
SMILES: CSCC[C@H](NC(=O)[C@H](Cc1ccccc1)NC[C@@H](NC[C@@H](N)CS)C(C)C)C(=O)O

Concentration [6]: 0.1 µM
SMILES: COC(=O)[C@H](CCSC)NC(=O)[C@@H](NC(=O)[C@@H](NC(=O)CCP(=O)(O)C/C=C(\C)CC/C=C(\C)CCC=C(C)C)C(C)C)C(C)C

IC50 [7]: 85 nM
IC50 [8]: 200 nM
SMILES: COC(=O)[C@H](CCSC)NC(=O)[C@@H]1Cc2ccccc2CN1C(=O)[C@@H](NC[C@@H](N)CS)C(C)(C)C
T/C (Mus musculus [9]): 154%

IC50 [11]: 350 nM
SMILES: CC(C)=CCC/C(C)=C/CC/C(C)=C/C(=O)C(F)(F)P(=O)(O)O

IC50 [3]: 83 nM
SMILES: CC(C)=CCC/C(C)=C/CC/C(C)=C/CNC(=O)C(COP(=O)(O)O)C(=O)O (stereo not given)

IC50 [12]: 120 nM
IC50 [13]: 60 nM
SMILES: CSC[C@H](NC(=O)c1cccc(CNC(=O)[C@@H](N)CS)c1)C(=O)O

IC50 [3]: 75 nM
SMILES: CC(C)=CCC/C(C)=C/CC/C(C)=C/CONC(=O)COP(=O)(O)O

Concentration [6]: 1 µM
Ki [14]: 5.2 nM
SMILES: CC(C)=CCC/C(C)=C/CC/C(C)=C/C(O)P(=O)(O)O (stereo not given)

IC50 [15]: 190 nM
SMILES: CCCCCCCC/C=C\CCCCCC/C(C(=O)O)=C(\C)C(=O)O [CHAETOMELLIC ACID B]

IC50 [7]: 0.79 nM
SMILES: CSCCC(NC(=O)CN1C(=O)[C@H](N(C)C(=O)[C@H](N)CS)NC(c2ccccc2)c2ccccc21)C(=O)O (stereo not given in full)
